One test deals with PA-TU-8902 xenograft. The experiment in a line: Anti-tumor activity in PA-TU-8902 xenograft mouse. It counts as in vivo. Conditions: 30 mg/kg, tail vein, twice a week for two weeks, male nude mice. As for the experimental part:
(§1) Test Example 4: Evaluation of Anti-Tumor Activity in Human KRAS G12V Mutant-Positive Pancreatic Cancer Line PA-TU-8902 or Human KRAS G12D Mutant-Positive Pancreatic Cancer Line PK-59 Xenograft Mouse
(§2) PA-TU-8902 cells or PK-59 cells (RIKEN BRC, RCB1901) were cultured using DMEM medium or RPMI-1640 medium containing 10% fetal bovine serum, respectively, in the presence of 5% CO2 at 37° C. The PA-TU-8902 cells or the PK-59 cells were collected and suspended in PBS, and two equivalents of VitroGel Hydrogel Matrix (from TheWell Bioscience) was added. A cell suspension prepared at 1.0-2.0×10^7 cells/mL was subcutaneously inoculated in a volume of 100 μL in 4- to 6-week-old male nude mice (BALB/c-nu (nu/nu), from The Jackson Laboratory Japan, Inc.). After about two weeks of the inoculation, the mice were divided into groups so that all the groups had approximately the same tumor volume and body weight, and administration of a subject compound was started on the next day. The test was conducted for five mice for each of a solvent group and a subject compound administration group. The solvent used was a solvent containing ethanol (from FUJIFILM Wako), an aqueous (2-hydroxypropyl)-β-cyclodextrin (HP-PCD) solution (from ROQUETTE), HCO-40 (from Nikko Chemicals Co., Ltd.) dissolved in a 5% glucose solution (from Otsuka Pharmaceutical) at a ratio of 4%, 0.5%, and 9%, respectively. The compound was dissolved using the solvent. The subject compound dissolved in the solvent or the solvent was administered into tail vein. The administration was performed once or twice a week for two weeks. The tumor size and the body weight were measured twice a week. The tumor volume was calculated by using the following formula.
(§3) [Tumor volume (mm^3)]=[Major axis of tumor (mm)]×[Minor axis of tumor (mm)]^2×0.5
(§4) The tumor growth inhibition (%) by the subject compound was calculated with the tumor volume of the subject compound administration group on the previous day of the start of the administration taken as 100% inhibition and the tumor volume of the solvent group of the day of the final measurement taken as 0% inhibition.

The next test deals with PK-59 xenograft. The experiment in a line: Anti-tumor activity in PK-59 xenograft mouse. It counts as in vivo. Conditions: 10 mg/kg, tail vein, once a week for two weeks, male nude mice. Here is the method: as §1, §2, §3, §4

The values below come from patent US20260049072A1, “HETEROCYCLIC COMPOUND FOR INDUCING DEGRADATION OF MUTANT KRAS PROTEIN” (Astellas Pharma Inc., priority 2022, published 2026).

Molecules are shown by their SMILES.

Consider `CO[C@@H](C)COc1cc(OC2CN(C(=O)NCCN(C)C)C2)c2cc(C3CC3)c(-c3c(C)c(F)cc4[nH]ncc34)c(OCc3ccc(-c4cn([C@H](C(=O)N5C[C@H](O)C[C@H]5C(=O)N[C@@H](CO)c5ccc(-n6cncn6)cc5)C(C)C)nn4)cc3)c2n1` (atropisomer, axis not shown; (M)) [Example 12, (4R)-1-[(2S)-2-(4-{4-[({(7M)-6-cyclopropyl-4-[(1-{[2-(dimethylamino)ethyl]carbamoyl}azetidin-3-yl)oxy]-7-(6-fluoro-5-methyl-1H-indazol-4-yl)-2-[(2S)-2-methoxypropoxy]quinolin-8-yl}oxy)methyl]phenyl}-1H-1,2,3-triazol-1-yl)-3-methylbutanoyl]-4-hydroxy-N-{(1R)-2-hydroxy-1-[4-(1H-1,2,4-triazol-1-yl)phenyl]ethyl}-L-prolinamide], for which the “Anti-tumor activity at final measurement (PA-TU-8902 xenograft mouse), tumor growth inhibition” value in the test on PA-TU-8902 xenograft is reported as 61% inhibition. In addition, in the test with PK-59 xenograft, the “Anti-tumor activity at final measurement (PK-59 xenograft mouse), tumor growth inhibition” value is on record as 63% inhibition.
For `CO[C@@H](C)COc1cc(OC2CN(C(=O)O[C@H]3C[C@@H](N(C)C)C3)C2)c2cc(C3CC3)c(-c3c(C)c(F)cc4[nH]ncc34)c(OCc3ccc(-c4cn([C@H](C(=O)N5C[C@H](O)C[C@H]5C(=O)N[C@@H](CO)c5ccc(-n6cncn6)cc5)C(C)C)nn4)cc3)c2n1` (atropisomer, axis not shown; (M)) [Example 13, (1s,3R)-3-(dimethylamino)cyclobutyl 3-({(7M)-6-cyclopropyl-7-(6-fluoro-5-methyl-1H-indazol-4-yl)-8-{[4-(1-{(2S)-1-[(2S,4R)-4-hydroxy-2-({(1R)-2-hydroxy-1-[4-(1H-1,2,4-triazol-1-yl)phenyl]ethyl}carbamoyl)pyrrolidin-1-yl]-3-methyl-1-oxobutan-2-yl}-1H-1,2,3-triazol-4-yl)phenyl]methoxy}-2-[(2S)-2-methoxypropoxy]quinolin-4-yl}oxy)azetidine-1-carboxylate], in that order: 57% inhibition and 78% inhibition.
For `CO[C@@H](C)COc1nc(NC2CN(C(=O)O[C@H]3C[C@@H](N(C)C)C3)C2)c2cc(C3CC3)c(-c3c(C)c(F)cc4[nH]ncc34)c(OCc3ccc(-c4cn([C@H](C(=O)N5C[C@H](O)C[C@H]5C(=O)N[C@@H](CO)c5ccc(-c6ocnc6C)cc5)C(C)C)nn4)cc3)c2n1` (atropisomer, axis not shown; (M)) [Example 1, (1s,3R)-3-(dimethylamino)cyclobutyl 3-({(7M)-6-cyclopropyl-7-(6-fluoro-5-methyl-1H-indazol-4-yl)-8-{[4-(1-{(2S)-1-[(2S,4R)-4-hydroxy-2-({(1R)-2-hydroxy-1-[4-(4-methyl-1,3-oxazol-5-yl)phenyl]ethyl}carbamoyl)pyrrolidin-1-yl]-3-methyl-1-oxobutan-2-yl}-1H-1,2,3-triazol-4-yl)phenyl]methoxy}-2-[(2S)-2-methoxypropoxy]quinazolin-4-yl}amino)azetidine-1-carboxylate] the same measures were 69% inhibition and 68% inhibition.
As to `CO[C@@H](C)COc1cc(OC2CN(C(=O)N3CC(CN(C)C)C3)C2)c2cc(C3CC3)c(-c3c(C)c(F)cc4[nH]ncc34)c(OCc3ccc(-c4cn([C@H](C(=O)N5C[C@H](O)C[C@H]5C(=O)N[C@@H](CO)c5ccc(-n6cncn6)cc5)C(C)C)nn4)cc3)c2n1` (atropisomer, axis not shown; (M)) [Example 5, (4R)-1-[(2S)-2-(4-{4-[({(7M)-6-cyclopropyl-4-[(1-{3-[(dimethylamino)methyl]azetidine-1-carbonyl}azetidin-3-yl)oxy]-7-(6-fluoro-5-methyl-1H-indazol-4-yl)-2-[(2S)-2-methoxypropoxy]quinolin-8-yl}oxy)methyl]phenyl}-1H-1,2,3-triazol-1-yl)-3-methylbutanoyl]-4-hydroxy-N-{(1R)-2-hydroxy-1-[4-(1H-1,2,4-triazol-1-yl)phenyl]ethyl}-L-prolinamide], the “Anti-tumor activity at final measurement (PA-TU-8902 xenograft mouse), tumor growth inhibition” value with PA-TU-8902 xenograft is on record as 56% inhibition. Also, the “Anti-tumor activity at final measurement (PK-59 xenograft mouse), tumor growth inhibition” value in the test with PK-59 xenograft is 92% inhibition.
On to `CO[C@@H](C)COc1nc(NC2CN(C(=O)O[C@H]3C[C@@H](N(C)C)C3)C2)c2cc(C3CC3)c(-c3c(C)c(F)cc4[nH]ncc34)c(OCc3ccc(-c4cn([C@H](C(=O)N5C[C@H](O)C[C@H]5C(=O)N[C@@H](CO)c5ccc(-c6scnc6C)cc5)C(C)C)nn4)cc3)c2n1` (atropisomer, axis not shown; (M)) [Example 11, (1s,3R)-3-(dimethylamino)cyclobutyl 3-({(7M)-6-cyclopropyl-7-(6-fluoro-5-methyl-1H-indazol-4-yl)-8-{[4-(1-{(2S)-1-[(2S,4R)-4-hydroxy-2-({(1R)-2-hydroxy-1-[4-(4-methyl-1,3-thiazol-5-yl)phenyl]ethyl}carbamoyl)pyrrolidin-1-yl]-3-methyl-1-oxobutan-2-yl}-1H-1,2,3-triazol-4-yl)phenyl]methoxy}-2-[(2S)-2-methoxypropoxy]quinazolin-4-yl}amino)azetidine-1-carboxylate], for which, in the test on PA-TU-8902 xenograft, the “Anti-tumor activity at final measurement (PA-TU-8902 xenograft mouse), tumor growth inhibition” value stood at 73% inhibition. For the same compound, in the test with PK-59 xenograft, the “Anti-tumor activity at final measurement (PK-59 xenograft mouse), tumor growth inhibition” value was found to be 95% inhibition.
